Results: patent US20240101602A1, “ANTIMICROBIAL PEPTIDES AND METHOD OF PREVENTING OR TREATING INFECTION BY USING THE SAME” (priority 2020, published 2024)

Assays:
[1] = test system: Klebsiella pneumonia NTUH-K2044
[2] = test system: Xanthomonas oryzae pv. oryzae strain Xoo28; conditions: Xoo Xoo28; Table 7
Eco DH5α = assay: MIC and MBC by serial dilution in 96-well plate; assay type: cell-based, Escherichia coli; conditions: Table 7
Summary of the method: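 Log-phase bacteria in rich or minimal medium were adjusted to OD600=0.08, diluted 100-fold, and mixed 1:1 with 2-fold serial peptide dilutions (final 0–32 μg/mL). Plates were incubated at the optimal temperature without shaking. MBC is the lowest peptide concentration yielding no colonies.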

red blood cells = assay type: cell-based, rat
Experimental: Further, the hemolytic activity of the antimicrobial peptides was tested. EDTA-treated rat whole blood was centrifuged at 840×g for 3 minutes at 4° C. to separate blood cells and plasma. The plasma was removed, and the blood cells were washed three times with PBS having the same volume as the original blood volume by gently turning the centrifuge tube upside down. After washing, ten microliters of blood cells were diluted in PBS 2000 times to count the cells. Finally, red blood cells were diluted to 5×10^8 cells/mL in PBS. Peptides were dissolved in water and filtered through a 0.2-μm filter to make a stock solution. The peptide concentration was quantitated by UV280. The peptide solution was diluted in PBS to different concentrations (5 times of tested concentration). Twenty microliters of peptide in PBS were mixed with 80 μL of red blood cell solution in a 96-well plate (V-bottom). […] The concentration of heme contained in each well was measured by UV405 using Infinite M1000 pro (Tecan). The hemolytic activity was calculated using the following formula: Hemolytic activity=[(F−F0)/(Ft−F0)]×100% • F is UV405 of the peptide-treated sample; • F0 is UV405 of sample without peptide (negative control); • Ft is UV405 of the Triton-treated sample (positive control).

[3] = test system: Pseudomonas syringae pv. tomato strain DC3000
[4] = test system: Pseudomonas aeruginosa ATCC 9027; conditions: ATCC 9027
in vitro = assay type: cell-based; conditions: human, HEK293 cells
Experimental: PepD3 was dissolved in water and filtered through a 0.2-μm filter. The peptide concentration was quantitated by UV280 to make a stock solution of 5120 μg/mL. The pepD3 stock solution was serially diluted in the serum-free DMEM. […] The serum-free DMEM medium without peptide was used as negative control. Cell viability was assessed using the Cell Titer 96 Aqueous One Solution Cell Proliferation Assay (Promega), in accordance with the manufacturer's instructions. The absorbance was measured with an Infinite M1000 pro (Tecan) at a wavelength of 490 nm. Data were normalized to the negative control to obtain the percentage of cell viability.

Cgl FST02 = assay type: cell-based, Colletotricum gloeosporioides; conditions: Cgl FST02; optimal minimal medium, crude peptides (Table 9)
[5] = test system: Ralstonia solanacearum strain Pss4; conditions: Rs Pss4; optimal minimal medium, crude peptides (Table 9)
[6] = test system: Agrobacterium tumefaciens strain Atu C58C1
[7] = test system: Pseudomonas syringae pv. syringae strain B728a; conditions: Pss B728a; Table 7
Botrytis cinerea = assay type: cell-based; conditions: Bc; optimal minimal medium, crude peptides (Table 9)

Substance: Ac-WKKLKKLLKKL-NH2 [pepD3]
- MBC [1]: 16 µg/mL
- MIC [1]: 16 µg/mL
- MBC [2]: 4.4 µg/mL
- MIC [2]: 3.6 µg/mL
- MBC (Eco DH5α): 13.5 µg/mL
- MIC (Eco DH5α): 10.5 µg/mL
- hemolytic activity (red blood cells): very little or non-hemolytic activity
- MBC [3]: 17.3 µg/mL
- MIC [3]: 9.3 µg/mL
- MBC [4]: 8 µg/mL
- MIC [4]: 4 µg/mL
- viability at 1 h, 32 µg/mL (in vitro): > 91%
- MBC/MFC (Cgl FST02): — (“—” indicates no antimicrobial activity being detected at the highest peptide concentration (32 μg/mL) tested in this study.)
- MIC (Cgl FST02): — (“—” indicates no antimicrobial activity being detected at the highest peptide concentration (32 μg/mL) tested in this study.)
- MBC/MFC [5]: — (“—” indicates no antimicrobial activity being detected at the highest peptide concentration (32 μg/mL) tested in this study.)
- MIC [5]: — (“—” indicates no antimicrobial activity being detected at the highest peptide concentration (32 μg/mL) tested in this study.)
- MBC [6]: 2.4 µg/mL
- MBC [7]: 16.0 µg/mL
- MIC [7]: 10.0 µg/mL
- MBC/MFC (Botrytis cinerea): — (“—” indicates no antimicrobial activity being detected at the highest peptide concentration (32 μg/mL) tested in this study.)
- MIC (Botrytis cinerea): — (“—” indicates no antimicrobial activity being detected at the highest peptide concentration (32 μg/mL) tested in this study.)
